Experimental data reported in patent EP1803452A1, “ESTER DERIVATIVE AND PHARMACEUTICAL USE THEREOF” (Japan Tobacco, Inc., priority 2004, dated 2006).

Key:
[1] = Metabolic stability test in plasma; assay type: in vitro ADME, human; conditions: LC/MS; for remaining at 10 min: unchanged form after 10 minutes at 37°C in human plasma, read-out: Remaining rate in human plasma (%/10min); for remaining at 1 h: unchanged form after 60 minutes at 37°C in human plasma, read-out: Remaining rate in human plasma (%/60min)
How it was run: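 Remaining rate (%) versus zero time was derived from LC/MS measurement of parent compound after centrifugation. Plasma from human, mouse and hamster received DMSO-dissolved compound and was held at 37°C for 0, 10 or 60 minutes before acetonitrile containing formic acid (final 0.1%) stopped the reaction.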

[2] = Stability test in buffer (pH 7.4); assay type: physicochemical; conditions: phosphate buffer/acetonitrile 7:3, 100 mM potassium phosphate buffer (pH 7.4) and acetonitrile 7:3 (v/v), LC/MS; for remaining at 10 min: 10 minutes at 37°C, read-out: Buf. remaining rate (%/10min); for remaining at 1 h: 60 minutes at 37°C, read-out: Buf. remaining rate (%/60min)
How it was run: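 Parent compound measured by LC/MS after 0, 10 or 60 min at 37°C in a 7:3 (v/v) mix of 100 mM potassium phosphate buffer and acetonitrile, with the reaction stopped by acetonitrile plus formic acid (final 0.1%). Percentage remaining is expressed relative to the zero-time amount.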

[3] = Metabolic stability test in liver S9; assay type: in vitro ADME; conditions: pH 7.4, human liver S9 2 mg protein/mL, LC/MS; for remaining at 10 min: unchanged form after 10 minutes at 37°C, read-out: Remaining rate in human liver S9 (%/10min); for remaining at 1 h: unchanged form after 60 minutes at 37°C, read-out: Remaining rate in human liver S9 (%/60min)
How it was run: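 Compound from DMSO solution was incubated at 37°C with human liver S9 (final 2 mg protein/mL) in 100 mM potassium phosphate pH 7.4 with an NADPH-regenerating system for 0, 10 and 60 minutes. Reactions were stopped with acetonitrile/0.1% formic acid. Unchanged compound was measured by LC/MS as remaining rate (%) relative to zero time.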

Row | Structure (SMILES) | remaining at 10 min [1] | remaining at 1 h [1] | remaining at 10 min [2] | remaining at 1 h [2] | remaining at 10 min [3] | remaining at 1 h [3]
1 | COc1cc(C(=O)OC(C)C)cc(Cl)c1OC(=O)CCCc1ccc(NC(=O)c2ccc(C)nc2-c2ccc(C(F)(F)F)cc2)c(C(=O)N(C)C)c1 [Compound 1-37, 3-chloro-4-[4-(3-dimethylcarbamoyl-4-{[6-methyl-2-(4-trifluoromethylphenyl)pyridine-3-carbonyl]amino}phenyl)butyryloxy]-5-methoxybenzoic acid isopropyl ester] | 0% | 0% | 99% | 99% | 37% | 11%
2 | COc1cc(C(=O)OC(C)C)cc(F)c1OC(=O)CCCc1ccc(NC(=O)c2ccc(C)nc2-c2ccc(C(F)(F)F)cc2)c(C(=O)N(C)C)c1 [Compound 1-38, 4-[4-(3-dimethylcarbamoyl-4-{[6-methyl-2-(4-trifluoromethylphenyl)pyridine-3-carbonyl]amino}phenyl)butyryloxy]-3-fluoro-5-methoxybenzoic acid isopropyl ester] | 0% | 0% | 101% | 102% | 11% | 2%
3 | COC(=O)c1cc(OC)c(OC(=O)CCCc2ccc(NC(=O)c3ccc(C)nc3-c3ccc(C(F)(F)F)cc3)c(C(=O)N(C)C)c2)c(OC)c1 [Compound 1-39, 4-[4-(3-dimethylcarbamoyl-4-{[6-methyl-2-(4-trifluoromethylphenyl)pyridine-3-carbonyl]amino}phenyl)butyryloxy]-3,5-dimethoxybenzoic acid methyl ester] | 0% | 0% | 98% | 104% | 5% | 2%
4 | CCOc1cc(C(=O)OC)cc(Cl)c1OC(=O)CCCc1ccc(NC(=O)c2ccc(C)nc2-c2ccc(C(F)(F)F)cc2)c(C(=O)N(C)C)c1 [Compound 1-40, 3-chloro-4-[4-(3-dimethylcarbamoyl-4-{[6-methyl-2-(4-trifluoromethylphenyl)pyridine-3-carbonyl]amino}phenyl)butyryloxy]-5-ethoxybenzoic acid methyl ester] | 0% | 0% | 100% | 102% | 5% | 0%
5 | COC(=O)c1cc(C)c(OC(=O)CCCc2ccc(NC(=O)c3ccc(C)nc3-c3ccc(C(F)(F)F)cc3)c(C(=O)N(C)C)c2)c(F)c1 [Compound 1-41, 4-[4-(3-dimethylcarbamoyl-4-{[6-methyl-2-(4-trifluoromethylphenyl)pyridine-3-carbonyl]amino}phenyl)butyryloxy]-3-fluoro-5-methylbenzoic acid methyl ester] | 37% | 0% | 103% | 106% | 4% | 0%
6 | CCc1cc(C(=O)OC)cc(F)c1OC(=O)CCCc1ccc(NC(=O)c2ccc(C)nc2-c2ccc(C(F)(F)F)cc2)c(C(=O)N(C)C)c1 [Compound 1-42, 4-[4-(3-dimethylcarbamoyl-4-{[6-methyl-2-(4-trifluoromethylphenyl)pyridine-3-carbonyl]amino}phenyl)butyryloxy]-3-ethyl-5-fluorobenzoic acid methyl ester] | 52% | 0% | 103% | 103% | 5% | 0%
7 | CCOC(=O)c1cc(OC)c(OC(=O)CCCc2ccc(NC(=O)c3ccc(C)nc3-c3ccc(C(F)(F)F)cc3)c(C(=O)N(C)C)c2)c(OC)c1 [Compound 1-43, 4-[4-(3-dimethylcarbamoyl-4-{[6-methyl-2-(4-trifluoromethylphenyl)pyridine-3-carbonyl]amino}phenyl)butyryloxy]-3,5-dimethoxybenzoic acid ethyl ester] | 13% | 0% | 101% | 103% | 4% | 2%

Results, then the compound that gave them:

Row | remaining at 10 min [1] | remaining at 1 h [1] | remaining at 10 min [2] | remaining at 1 h [2] | remaining at 10 min [3] | remaining at 1 h [3] | Structure (SMILES)
8 | 13% | 0% | 99% | 100% | 12% | 4% | COc1cc(C(=O)OC(C)C)cc(OC)c1OC(=O)CCCc1ccc(NC(=O)c2ccc(C)nc2-c2ccc(C(F)(F)F)cc2)c(C(=O)N(C)C)c1 [Compound 1-44, 4-[4-(3-dimethylcarbamoyl-4-{[6-methyl-2-(4-trifluoromethylphenyl)pyridine-3-carbonyl]amino}phenyl)butyryloxy]-3,5-dimethoxybenzoic acid isopropyl ester]
9 | 89% | 48% | 101% | 102% | 12% | 2% | COC(=O)c1cc(C)c(OC(=O)CCCc2ccc(NC(=O)c3ccc(C)nc3-c3ccc(C(F)(F)F)cc3)c(C(=O)N(C)C)c2)c(C(F)(F)F)c1 [Compound 1-45, 4-[4-(3-dimethylcarbamoyl-4-([6-methyl-2-(4-trifluoromethylphenyl)pyridine-3-carbonyl]amino}phenyl)butyryloxy]-3-methyl-5-trifluoromethylbenzoic acid methyl ester]
10 | 39% | 0% | 99% | 102% | 5% | 2% | COC(=O)c1cc(C)c(OC(=O)CCCc2ccc(NC(=O)c3ccc(C)nc3-c3ccc(C(F)(F)F)cc3)c(C(=O)N(C)C)c2)c(OC)c1 [Compound 1-46, 4-[4-(3-dimethylcarbamoyl-4-{[6-methyl-2-(4-trifluoromethylphenyl)pyridine-3-carbonyl]amino}phenyl)butyryloxy]-3-methoxy-5-methylbenzoic acid methyl ester]
11 | 0% | 0% | 96% | 97% | 14% | 0% | COC(=O)c1cc(OC)c(OC(=O)CCCc2ccc(NC(=O)c3ccc(C)nc3-c3ccc(C(F)(F)F)cc3)c(C(=O)N(C)C)c2)c(C(F)(F)F)c1 [Compound 1-47, 4-[4-(3-dimethylcarbamoyl-4-{[6-methyl-2-(4-trifluoromethylphenyl)pyridine-3-carbonyl]amino}phenyl)butyryloxy]-3-methoxy-5-trifluoromethylbenzoic acid methyl ester]
12 | 0% | 0% | 99% | 97% | 16% | 6% | CCOC(=O)c1cc(Cl)c(OC(=O)CCCc2ccc(NC(=O)c3ccc(C)nc3-c3ccc(C(F)(F)F)cc3)c(C(=O)N(C)C)c2)c(OC)c1 [Compound 1-48, 3-chloro-4-[4-(3-dimethylcarbamoyl-4-{[6-methyl-2-(4-trifluoromethylphenyl)pyridine-3-carbonyl]amino}phenyl)butyryloxy]-5-methoxybenzoic acid ethyl ester]
